Assay results reported in PubChem BioAssay AID248 (DTP/NCI, 2004).
Where “and” joins values, the source holds several entries; their conditions need not be identical. Equal values may be shown once. Toxic doses and inconclusive results are not listed. Rule as the data show it: active = T/C of 150% or more; inactive = T/C below 125%.

Tested on: L1210 leukemia ip in BDF1 mice, survival T/C
Test: NCI In Vivo Anticancer Drug Screen. Data for tumor model L1210 Leukemia (intraperitoneal) in B6D2F1 (BDF1) mice
Conditions: higher = longer survival
Summary of the method: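 Read-out is survival time, reported as the treated-group measurement over the vehicle-control measurement.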

[1] = endpoint: mean survival time, dose: 100.0 mg/kg/injection, schedule: Q04DX002 (ip), vehicle: saline
[2] = endpoint: mean survival time, dose: 200.0 mg/kg/injection, schedule: Q04DX002 (ip), vehicle: saline
[3] = endpoint: mean survival time, dose: 50.0 mg/kg/injection, schedule: Q04DX003 (ip), vehicle: saline with Tween-80
[4] = endpoint: mean survival time, dose: 100.0 mg/kg/injection, schedule: Q01DX001 (ip), vehicle: saline with Tween-80
[5] = endpoint: mean survival time, dose: 100.0 mg/kg/injection, schedule: Q01DX009 (ip), vehicle: saline with Tween-80
[6] = endpoint: mean survival time, dose: 100.0 mg/kg/injection, schedule: Q04DX003 (ip), vehicle: saline with Tween-80
[7] = endpoint: mean survival time, dose: 200.0 mg/kg/injection, schedule: Q01DX001 (ip), vehicle: saline with Tween-80
[8] = endpoint: mean survival time, dose: 200.0 mg/kg/injection, schedule: Q01DX009 (ip), vehicle: saline with Tween-80
[9] = endpoint: mean survival time, dose: 200.0 mg/kg/injection, schedule: Q04DX003 (ip), vehicle: saline with Tween-80
[10] = endpoint: mean survival time, dose: 100.0 mg/kg/injection, schedule: Q01DX001 (ip), vehicle: saline
[11] = endpoint: mean survival time, dose: 200.0 mg/kg/injection, schedule: Q01DX001 (ip), vehicle: saline
[12] = endpoint: mean survival time, dose: 400.0 mg/kg/injection, schedule: Q01DX001 (ip), vehicle: saline with Tween-80
[13] = endpoint: mean survival time, dose: 100.0 mg/kg/injection, schedule: Q01DX009 (ip), vehicle: Klucel (hydroxypropylcellulose) (HPC)
[14] = endpoint: mean survival time, dose: 200.0 mg/kg/injection, schedule: Q01DX009 (ip), vehicle: Klucel (hydroxypropylcellulose) (HPC)
[15] = endpoint: mean survival time, dose: 400.0 mg/kg/injection, schedule: Q01DX009 (ip), vehicle: Klucel (hydroxypropylcellulose) (HPC)
[16] = endpoint: mean survival time, dose: 100.0 mg/kg/injection, schedule: Q04DX002 (ip), vehicle: Klucel (hydroxypropylcellulose) (HPC)
[17] = endpoint: mean survival time, dose: 200.0 mg/kg/injection, schedule: Q04DX002 (ip), vehicle: Klucel (hydroxypropylcellulose) (HPC)
[18] = endpoint: mean survival time, dose: 400.0 mg/kg/injection, schedule: Q04DX003 (ip), vehicle: saline with Tween-80
[19] = endpoint: mean survival time, dose: 400.0 mg/kg/injection, schedule: Q04DX002 (ip), vehicle: Klucel (hydroxypropylcellulose) (HPC)
[20] = endpoint: mean survival time, dose: 100.0 mg/kg/injection, schedule: Q04DX003 (ip), vehicle: Klucel (hydroxypropylcellulose) (HPC)
[21] = endpoint: mean survival time, dose: 200.0 mg/kg/injection, schedule: Q04DX003 (ip), vehicle: Klucel (hydroxypropylcellulose) (HPC)
[22] = endpoint: mean survival time, dose: 400.0 mg/kg/injection, schedule: Q04DX003 (ip), vehicle: Klucel (hydroxypropylcellulose) (HPC)
[23] = endpoint: mean survival time, dose: 400.0 mg/kg/injection, schedule: Q01DX009 (ip), vehicle: saline with Tween-80
[24] = endpoint: mean survival time, dose: 100.0 mg/kg/injection, schedule: Q04DX003 (ip), vehicle: saline sonified
[25] = endpoint: mean survival time, dose: 200.0 mg/kg/injection, schedule: Q04DX003 (ip), vehicle: saline sonified
[26] = endpoint: mean survival time, dose: 400.0 mg/kg/injection, schedule: Q04DX003 (ip), vehicle: saline sonified

Measured: T/C

OCC(O)C(O)C(O)C(O)CNC(CO)(CO)CO (centres undefined)
inactive: [1] 104 % of control | [2] 88 % of control | endpoint: mean survival time, dose: 400.0 mg/kg/injection, schedule: Q04DX002 (ip), vehicle: saline 95 % of control

NC(=O)c1[nH]c(CCCc2ccccc2)nc1N
inactive: endpoint: mean survival time, dose: 50.0 mg/kg/injection, schedule: Q01DX009 (ip), vehicle: saline with Tween-80 102 % of control | [3] 103 % of control | [4] 110 % of control | [5] 90 % of control | [6] 109 % of control | [7] 100 % of control | [8] 102 % of control | [9] 100 % of control

COCCCN1CC2CCCC1O2 (centres undefined)
inactive: endpoint: mean survival time, dose: 50.0 mg/kg/injection, schedule: Q01DX001 (ip), vehicle: saline 91 % of control | [10] 95 % of control | [11] 97 % of control

CC(=O)/C(=C\N(C)C)C(=O)Nc1ccccn1
inactive: [4] 98 % of control | [7] 101 % of control | [12] 93 % of control

CCOC(=O)c1ccc(NC(=O)NCCCCCCNC(=O)Nc2ccc(C(=O)OCC)cc2)cc1
inactive: [13] 90 % of control | [14] 100 % of control | [15] 100 % of control

COc1ccc(NC(=S)Nc2ccc(-c3ccc(NC(=S)Nc4ccc(OC)cc4)cc3)cc2)cc1
inactive: [16] 87 % of control | [17] 87 % of control

CCOC(=O)c1ccc2c(c1)nc1c3cccc4cccc(c(=O)n21)c43
inactive: [6] 86 % of control | [9] 92 % of control | [18] 98 % of control

O=C(NCCc1nc(-c2nc(C(=O)O)cs2)cs1)c1ccccc1
inactive: [6] 103 % of control | [9] 94 % of control | [18] 92 % of control

CC(=O)NC(C(=O)O)C(C)C (centres undefined)
inactive: [10] 97 % of control | [11] 87 % of control | endpoint: mean survival time, dose: 400.0 mg/kg/injection, schedule: Q01DX001 (ip), vehicle: saline 99 % of control

CCCC(=O)NC1Cc2cc(C)cc(C)c21 (centres undefined)
inactive: endpoint: mean survival time, dose: 50.0 mg/kg/injection, schedule: Q04DX002 (ip), vehicle: Klucel (hydroxypropylcellulose) (HPC) 100 % of control | [16] 111 % of control | [17] 96 % of control

CNC(=S)N/N=C(\C=N\NC(=S)NC)c1ccc(C)cc1
inactive: [16] 106 % of control | [17] 100 % of control | [19] 103 % of control

CNc1c(Cl)c(Cl)cc(Cl)c1Cl
inactive: [5] 104 % of control | [6] 95 % of control | [8] 110 % of control | [9] 114 % of control | [18] 93 % of control

Cc1cc(I)ccc1NC(=S)Nc1ccccc1F
inactive: [6] 93 % of control | [9] 105 % of control

c1c(N2CC2)cc(N2CC2)cc1N1CC1
inactive: endpoint: median survival time, dose: 100.0 mg/kg/injection, schedule: Q01DX009 (ip), vehicle: Klucel (hydroxypropylcellulose) (HPC) 108 % of control | endpoint: median survival time, dose: 200.0 mg/kg/injection, schedule: Q01DX009 (ip), vehicle: Klucel (hydroxypropylcellulose) (HPC) 97 % of control | endpoint: median survival time, dose: 400.0 mg/kg/injection, schedule: Q01DX009 (ip), vehicle: Klucel (hydroxypropylcellulose) (HPC) 92 % of control

COc1ccccc1CCN
inactive: [1] 112 % of control | [2] 93 % of control and 108 % of control

N#CCC(=O)NCc1cnccn1
inactive: endpoint: mean survival time, dose: 50.0 mg/kg/injection, schedule: Q01DX005 (ip), vehicle: saline 110 % of control | endpoint: mean survival time, dose: 100.0 mg/kg/injection, schedule: Q01DX005 (ip), vehicle: saline 104 % of control | endpoint: mean survival time, dose: 100.0 mg/kg/injection, schedule: Q04DX003 (ip), vehicle: saline 103 % of control | endpoint: mean survival time, dose: 200.0 mg/kg/injection, schedule: Q01DX005 (ip), vehicle: saline 105 % of control | endpoint: mean survival time, dose: 200.0 mg/kg/injection, schedule: Q04DX003 (ip), vehicle: saline 103 % of control | endpoint: mean survival time, dose: 400.0 mg/kg/injection, schedule: Q01DX005 (ip), vehicle: saline 105 % of control | endpoint: mean survival time, dose: 400.0 mg/kg/injection, schedule: Q04DX003 (ip), vehicle: saline 101 % of control

CSc1nc(N)cc(NCc2ccccc2)n1
inactive: [4] 93 % of control | [7] 95 % of control | [12] 100 % of control

CN1CCN(c2ccc3nnc(Cl)n3n2)CC1
inactive: [3] 97 % of control

C=CC[n+]1ccccc1/C=C/c1ccc(OC)c(OC)c1
inactive: endpoint: mean survival time, dose: 3.12 mg/kg/injection, schedule: Q01DX009 (ip), vehicle: Klucel (hydroxypropylcellulose) (HPC) 106 % of control | endpoint: mean survival time, dose: 3.12 mg/kg/injection, schedule: Q04DX003 (ip), vehicle: Klucel (hydroxypropylcellulose) (HPC) 105 % of control | endpoint: mean survival time, dose: 6.25 mg/kg/injection, schedule: Q01DX009 (ip), vehicle: Klucel (hydroxypropylcellulose) (HPC) 106 % of control | endpoint: mean survival time, dose: 6.25 mg/kg/injection, schedule: Q04DX003 (ip), vehicle: Klucel (hydroxypropylcellulose) (HPC) 100 % of control | endpoint: mean survival time, dose: 12.5 mg/kg/injection, schedule: Q01DX009 (ip), vehicle: Klucel (hydroxypropylcellulose) (HPC) 98 % of control | endpoint: mean survival time, dose: 12.5 mg/kg/injection, schedule: Q04DX003 (ip), vehicle: Klucel (hydroxypropylcellulose) (HPC) 94 % of control and 100 % of control

O=S1(=O)C=C(Br)c2ccccc21
inactive: [13] 101 % of control | [20] 91 % of control | [14] 91 % of control | [21] 96 % of control | [22] 90 % of control

Nc1cc2c(cc1N)-c1ccccc1/C2=N\O
inactive: endpoint: mean survival time, dose: 75.0 mg/kg/injection, schedule: Q01DX001 (ip), vehicle: carboxymethylcellulose (CMC) 102 % of control | endpoint: mean survival time, dose: 150.0 mg/kg/injection, schedule: Q01DX001 (ip), vehicle: carboxymethylcellulose (CMC) 91 % of control

Nc1nc(N)c(N=Nc2ccc(C(=O)O)cc2)c(=O)[nH]1
inactive: [10] 105 % of control | [11] 106 % of control

N#C/C(=C/c1ccccc1Cl)C(N)=O
inactive: [5] 100 % of control | [16] 100 % of control | [8] 94 % of control | [17] 93 % of control | [23] 94 % of control | [19] 107 % of control

Nc1nnn(CCO)n1
inactive: [24] 105 % of control | [25] 102 % of control | [26] 96 % of control

Cc1ccc(NC(=O)Oc2ccccc2C(N)=O)cc1NC(=O)Oc1ccccc1C(N)=O
inactive: [13] 93 % of control | [14] 94 % of control | [15] 89 % of control

COC(=O)c1ccc(=O)n(C/C=C(\C)CCC(=O)O)c1
inactive: endpoint: mean survival time, dose: 100.0 mg/kg/injection, schedule: Q01DX009 (ip), vehicle: water 96 % of control | endpoint: mean survival time, dose: 100.0 mg/kg/injection, schedule: Q04DX003 (ip), vehicle: other 93 % of control | endpoint: mean survival time, dose: 200.0 mg/kg/injection, schedule: Q01DX009 (ip), vehicle: water 102 % of control | endpoint: mean survival time, dose: 200.0 mg/kg/injection, schedule: Q04DX003 (ip), vehicle: other 93 % of control | endpoint: mean survival time, dose: 400.0 mg/kg/injection, schedule: Q01DX009 (ip), vehicle: water 98 % of control | endpoint: mean survival time, dose: 400.0 mg/kg/injection, schedule: Q04DX003 (ip), vehicle: other 91 % of control

CCC(CO)Nc1nc2cc(Br)ccc2c2ccc(Br)cc12 (centres undefined)
inactive: [20] 90 % of control | [21] 87 % of control | [22] 94 % of control

CCCCCC(C1=NC(C)(C)CC(C)O1)c1ccccc1 (centres undefined)
inactive: endpoint: mean survival time, dose: 100.0 mg/kg/injection, schedule: Q01DX009 (ip), vehicle: saline 103 % of control | [24] 103 % of control | endpoint: mean survival time, dose: 200.0 mg/kg/injection, schedule: Q01DX009 (ip), vehicle: saline 113 % of control | [25] 117 % of control | [26] 105 % of control

Cc1cc(N(CCCOS(C)(=O)=O)CCCOS(C)(=O)=O)ccc1C=Nc1ccc(-c2csc(COc3ccc(Br)cc3Br)n2)cc1
inactive: [5] 88 % of control | [8] 91 % of control | [23] 96 % of control
